This data set can be described thus: Solubility of compound represented by formula I in different solvents. The class given is physicochemical. Conditions: for solubility at 30 min: thermodynamic from solid, read-out: Approximate Solubility. The procedure:
Referring to tests under the General Notices, Volume II, Chinese Pharmacopoeia 2010, excessive compounds represented by formula I which were grinded to fine powder were weighed and transferred in a certain amount of solvent (25° C.±2° C.), and shaken vigorously for 30 s every 5 min. The dissolution of the drug was observed within 30 min. Then the solution was filtered, the initial filtrate was discarded, and the concentration of the successive filtrate was tested. The solubility was calculated.

Like-named read-outs stand apart in the source and are kept apart here.

Usually solubility stands for the concentration that dissolves in the medium under given conditions. As for `O=C(c1cc(Cc2n[nH]c(=O)c3ccccc23)ccc1F)N1CCn2nc(C(F)(F)F)nc2C1` [Compound represented by formula I], the “Solubility (descriptive term)” value is “slightly soluble” (Acetone), “very slightly soluble” (Anhydrous Ethanol), “slightly soluble” (Tetrahydrofuran) and “practically insoluble” (conventional aqueous solvents). Also, the solubility at 30 min was 0.85 µg/mL (aqueous buffer, Acetate Buffer pH 4.5, 25° C.±2° C.); 0.59 µg/mL (aqueous buffer, Phosphate Buffer pH 6.8, 25° C.±2° C.); 19.5 µg/mL (aqueous with cosolvent or surfactant or cyclodextrin, 5% Polysorbate 80 Aqueous Solution, 25° C.±2° C.); 4960 µg/mL (organic solvent or mixture, Acetone, 25° C.±2° C.); 458 µg/mL (organic solvent or mixture, Anhydrous Ethanol, 25° C.±2° C.); 8550 µg/mL (organic solvent or mixture, Tetrahydrofuran, 25° C.±2° C.). Besides, the solubility at 30 min (simulated gastric fluid, 0.1 mol/L Hydrochloric Acid, 25° C.±2° C.) is 0.78 µg/mL.
